Measurements published in ChEMBL document CHEMBL5154644, “Design, Synthesis, and Structure-Activity Relationship Optimization of Pyrazolopyrimidine Amide Inhibitors of Phosphoinositide 3-Kinase γ (PI3Kγ)” (J Med Chem, 2022).

Columns and labels:
[1] = molecular target: T1, Phosphatidylinositol 4,5-bisphosphate 3-kinase catalytic subunit delta isoform (Homo sapiens, UniProt O00329); experiment: Inhibition of PI3Kdelta (unknown origin) using PIP2 as substrate preincubated for 1 hr followed by substrate addition and measured after 60 mins in presence of ATP by ADP-glo assay
T1 sequence (O00329 whole entry): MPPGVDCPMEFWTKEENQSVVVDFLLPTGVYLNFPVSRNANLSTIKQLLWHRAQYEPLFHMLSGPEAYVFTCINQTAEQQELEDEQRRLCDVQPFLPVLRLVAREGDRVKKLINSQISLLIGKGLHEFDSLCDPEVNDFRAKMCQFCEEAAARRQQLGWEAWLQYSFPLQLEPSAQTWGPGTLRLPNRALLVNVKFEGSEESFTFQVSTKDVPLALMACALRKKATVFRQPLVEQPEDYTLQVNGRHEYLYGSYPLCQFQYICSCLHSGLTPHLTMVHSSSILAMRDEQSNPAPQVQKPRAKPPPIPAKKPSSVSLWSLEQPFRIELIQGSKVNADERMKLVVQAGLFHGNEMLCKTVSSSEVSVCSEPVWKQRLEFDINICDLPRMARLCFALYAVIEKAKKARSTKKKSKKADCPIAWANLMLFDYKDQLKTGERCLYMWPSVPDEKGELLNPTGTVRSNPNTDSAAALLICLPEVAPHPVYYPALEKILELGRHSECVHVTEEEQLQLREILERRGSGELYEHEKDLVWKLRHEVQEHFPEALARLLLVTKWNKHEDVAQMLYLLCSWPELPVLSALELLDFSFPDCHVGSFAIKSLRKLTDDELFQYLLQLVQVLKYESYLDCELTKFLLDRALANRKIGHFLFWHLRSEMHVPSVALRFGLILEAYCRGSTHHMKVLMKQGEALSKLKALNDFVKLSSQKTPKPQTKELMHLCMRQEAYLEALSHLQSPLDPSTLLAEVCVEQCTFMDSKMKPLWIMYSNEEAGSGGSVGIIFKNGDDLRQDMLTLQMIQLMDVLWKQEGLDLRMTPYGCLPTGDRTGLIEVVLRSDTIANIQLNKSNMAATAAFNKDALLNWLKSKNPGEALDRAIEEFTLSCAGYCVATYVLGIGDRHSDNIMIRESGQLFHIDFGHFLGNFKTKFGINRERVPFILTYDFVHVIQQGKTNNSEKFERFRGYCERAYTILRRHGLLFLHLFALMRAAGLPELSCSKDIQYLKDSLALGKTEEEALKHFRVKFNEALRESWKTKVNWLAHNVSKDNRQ

[2] = Metabolic stability in human hepatocytes assessed as intrinsic clearance per 10^6 cells at 0.5 uM by LC-MS/MS analysis; assay type: ADME, cell-based, Hepatocyte; conditions: read-out: CLH
[3] = molecular target: Phosphatidylinositol 4,5-bisphosphate 3-kinase catalytic subunit alpha isoform (Homo sapiens, UniProt P42336); experiment: Inhibition of PI3Kalpha (unknown origin) using PIP2 as substrate preincubated for 1 hr followed by substrate addition and measured after 60 mins in presence of ATP by ADP-glo assay
Sequence of Phosphatidylinositol 4,5-bisphosphate 3-kinase catalytic subunit alpha isoform (P42336 whole entry, canonical isoform): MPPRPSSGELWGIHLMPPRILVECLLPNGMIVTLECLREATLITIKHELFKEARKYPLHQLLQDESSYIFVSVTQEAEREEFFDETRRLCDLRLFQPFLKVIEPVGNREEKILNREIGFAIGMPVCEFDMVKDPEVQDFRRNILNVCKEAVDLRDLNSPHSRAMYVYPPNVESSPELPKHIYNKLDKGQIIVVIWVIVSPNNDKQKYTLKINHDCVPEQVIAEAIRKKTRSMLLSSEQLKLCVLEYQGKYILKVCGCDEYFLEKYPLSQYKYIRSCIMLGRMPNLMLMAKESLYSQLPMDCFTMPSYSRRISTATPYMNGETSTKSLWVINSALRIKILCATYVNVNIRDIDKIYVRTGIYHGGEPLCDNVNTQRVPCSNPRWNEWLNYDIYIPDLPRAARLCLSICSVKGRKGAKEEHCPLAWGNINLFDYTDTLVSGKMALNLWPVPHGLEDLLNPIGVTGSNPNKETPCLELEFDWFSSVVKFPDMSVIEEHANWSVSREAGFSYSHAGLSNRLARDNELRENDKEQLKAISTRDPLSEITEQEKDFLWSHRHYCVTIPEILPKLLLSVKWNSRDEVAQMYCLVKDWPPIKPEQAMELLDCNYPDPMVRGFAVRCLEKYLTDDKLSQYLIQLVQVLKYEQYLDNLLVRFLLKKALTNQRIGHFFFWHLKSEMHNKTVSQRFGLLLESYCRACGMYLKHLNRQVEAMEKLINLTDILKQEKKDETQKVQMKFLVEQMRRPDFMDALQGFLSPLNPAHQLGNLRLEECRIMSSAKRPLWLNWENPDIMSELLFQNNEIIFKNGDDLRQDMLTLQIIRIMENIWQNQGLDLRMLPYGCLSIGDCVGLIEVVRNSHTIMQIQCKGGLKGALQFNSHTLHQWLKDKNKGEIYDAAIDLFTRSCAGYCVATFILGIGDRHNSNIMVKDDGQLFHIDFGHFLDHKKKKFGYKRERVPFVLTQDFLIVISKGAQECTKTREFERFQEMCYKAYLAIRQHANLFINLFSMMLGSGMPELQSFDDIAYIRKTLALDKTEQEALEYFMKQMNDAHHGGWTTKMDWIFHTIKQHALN

[4] = Hepatic clearance in Sprague-Dawley rat by LC-MS/MS analysis; assay type: ADME; conditions: in vivo
Homo sapiens [5] = species on record: Homo sapiens; experiment: Selectivity ratio of IC50 for inhibition of PI3Kdelta (unknown origin) to IC50 for inhibition of PI3Kgamma (unknown origin)
[6] = Metabolic stability in rat hepatocyte assessed as intrinsic clearance per 10^8 cells at 0.5 uM by LC-MS/MS analysis; assay type: ADME, cell-based; conditions: hepatocytes
[7] = molecular target: T2, Phosphatidylinositol 4,5-bisphosphate 3-kinase catalytic subunit gamma isoform (Homo sapiens, UniProt P48736); experiment: Inhibition of PI3Kgamma (unknown origin) using PIP2 as substrate preincubated for 1 hr followed by substrate addition and measured after 60 mins in presence of ATP by ADP-glo assay
T2 sequence (P48736 whole entry, canonical isoform): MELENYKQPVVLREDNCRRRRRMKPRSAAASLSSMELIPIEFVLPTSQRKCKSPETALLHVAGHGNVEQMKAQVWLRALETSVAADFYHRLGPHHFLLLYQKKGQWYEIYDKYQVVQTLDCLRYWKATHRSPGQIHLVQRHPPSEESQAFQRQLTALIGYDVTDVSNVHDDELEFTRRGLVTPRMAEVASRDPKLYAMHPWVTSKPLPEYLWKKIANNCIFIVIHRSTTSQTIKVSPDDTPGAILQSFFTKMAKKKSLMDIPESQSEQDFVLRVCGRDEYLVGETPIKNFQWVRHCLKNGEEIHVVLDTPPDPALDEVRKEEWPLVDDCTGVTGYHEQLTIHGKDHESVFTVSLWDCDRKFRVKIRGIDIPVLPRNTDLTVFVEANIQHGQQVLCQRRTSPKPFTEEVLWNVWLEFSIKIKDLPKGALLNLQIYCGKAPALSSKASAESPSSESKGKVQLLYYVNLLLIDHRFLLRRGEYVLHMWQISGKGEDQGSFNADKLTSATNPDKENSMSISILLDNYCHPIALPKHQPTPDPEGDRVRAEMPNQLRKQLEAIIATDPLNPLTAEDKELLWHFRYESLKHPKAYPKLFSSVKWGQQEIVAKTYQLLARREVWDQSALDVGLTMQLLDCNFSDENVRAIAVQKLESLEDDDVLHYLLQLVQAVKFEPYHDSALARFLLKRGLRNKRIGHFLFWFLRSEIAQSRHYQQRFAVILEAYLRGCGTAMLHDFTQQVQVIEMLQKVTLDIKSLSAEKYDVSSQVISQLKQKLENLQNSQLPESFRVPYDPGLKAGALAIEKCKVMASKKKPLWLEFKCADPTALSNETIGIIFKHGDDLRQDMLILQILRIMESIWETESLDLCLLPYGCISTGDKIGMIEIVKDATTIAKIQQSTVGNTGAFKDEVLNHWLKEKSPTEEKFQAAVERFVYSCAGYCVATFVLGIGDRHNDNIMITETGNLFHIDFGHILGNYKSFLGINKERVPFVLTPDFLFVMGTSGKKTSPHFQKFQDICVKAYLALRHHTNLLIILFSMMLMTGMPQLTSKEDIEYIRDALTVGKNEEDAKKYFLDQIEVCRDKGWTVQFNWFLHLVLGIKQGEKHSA

[8] = molecular target: T2, Phosphatidylinositol 4,5-bisphosphate 3-kinase catalytic subunit gamma isoform; experiment: Inhibition of PI3Kgamma (unknown origin) in […] stimulated human THP-1 cells assessed as reduction in Akt phosphorylation level at Ser473 residue preincubated for 60 mins followed by rhMCP-1 stimulation and measured after 2 mins by AlphaLisa assay; assay type: cell-based
Homo sapiens [9] = species on record: Homo sapiens; experiment: Selectivity ratio of IC50 for inhibition of PI3Kalpha (unknown origin) to IC50 for inhibition of PI3Kgamma (unknown origin)
CYP3A4 = CYP3A4 (Homo sapiens, UniProt P08684); experiment: in vitro; conditions: human liver microsomes, probe midazolam
Sequence of CYP3A4 (P08684 whole entry): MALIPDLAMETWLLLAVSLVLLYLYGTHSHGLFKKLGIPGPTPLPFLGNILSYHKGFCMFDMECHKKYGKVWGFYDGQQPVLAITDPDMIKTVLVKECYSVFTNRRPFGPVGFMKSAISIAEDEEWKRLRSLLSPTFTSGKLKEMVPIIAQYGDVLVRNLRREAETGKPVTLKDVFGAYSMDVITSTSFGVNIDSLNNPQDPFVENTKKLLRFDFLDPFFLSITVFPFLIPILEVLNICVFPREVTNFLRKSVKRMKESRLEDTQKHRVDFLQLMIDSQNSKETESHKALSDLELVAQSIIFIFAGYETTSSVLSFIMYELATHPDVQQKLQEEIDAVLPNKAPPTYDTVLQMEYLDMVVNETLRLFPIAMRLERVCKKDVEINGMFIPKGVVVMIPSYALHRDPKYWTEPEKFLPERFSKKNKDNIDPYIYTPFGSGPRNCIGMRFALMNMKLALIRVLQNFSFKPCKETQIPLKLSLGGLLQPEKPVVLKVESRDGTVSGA
Description: Time dependent inhibition of CYP3A4 in human liver microsomes at 10 uM using midazolam as substrate preincubated for 30 mins in presence of NADPH by LC/MS/MS analysis relative to control

| SMILES | IC50 [1] [nM] | hepatocyte CLint at 0.5 µM [2] [µL/min/1e6 cells] | IC50 [3] [nM] | CLH [4] [mL/min/kg] | Ratio IC50 (Homo sapiens [5]) | hepatocyte intrinsic clearance [6] [µL/min] | IC50 [7] [nM] | IC50 [8] [nM] | Ratio IC50 (Homo sapiens [9]) | inhibition at 30 min, 10 µM (CYP3A4) [%] |
| --- | --- | --- | --- | --- | --- | --- | --- | --- | --- | --- |
| Cc1cc(-c2ccn3nc(N)c(C(=O)N[C@H]4CCOC4)c3n2)cc2c1C(=O)N([C@@H](C)C1CC1)C2 | 598 | 9.35 | 974 | 130 | 352 | 13 | 1.8 | 148 | 580 |  |
| CC(C)c1cc(-c2ccn3nc(N)c(C(=O)NC4CC4)c3n2)cc2c1C(=O)N([C@@H](C)C1CC1)C2 | 1480 | < 1.2 | 1010 |  | 322 | 2.41 | 4.6 | 54 | 220 | 28 |
| Cc1cc(-c2ccn3nc(N)c(C(=O)N[C@H]4CC[C@@](C)(O)CC4)c3n2)cc2c1C(=O)N([C@@H](C)C1CC1)C2 | > 10000 | < 1.2 | > 10000 | 33 | > 2090 | 11.6 | 4.8 | 102 | > 2090 |  |
| Cc1cc(-c2ccn3nc(N)c(C(=O)N[C@@H](CO)C4CC4)c3n2)cc2c1C(=O)N([C@@H](C)C1CC1)C2 | > 10000 | 2.03 | > 10000 | 8.3 | > 3440 | 1.31 | 2.9 | 133 | > 3440 | 7 |
| Cc1cc(-c2ccn3nc(N)c(-c4cnn(C)c4)c3n2)cc2c1C(=O)N([C@@H](C)C1CC1)C2 |  |  |  | 21.7 |  |  |  |  |  |  |
| Cc1cc(-c2ccn3nc(N)c(C(=O)N[C@@H]4CC[C@@H](O)C4)c3n2)cc2c1C(=O)N([C@@H](C)C1CC1)C2 | 123 | 3.26 | 140 | 71.7 | 29 | 24.6 | 4.2 | 82 | 33 | 14 |
| C[C@@H](C1CC1)N1Cc2cc(-c3ccn4nc(N)c(C(=O)NC5CC5)c4n3)cc(S(=O)(=O)C3CC3)c2C1=O | 172 | 1.99 | 384 | 41.7 | 100 | < 1.2 | 1.7 | 56 | 223 | 23 |
| Cc1cc(-c2ccn3nc(N)c(C(=O)Nc4cnn(C)c4)c3n2)cc2c1C(=O)N([C@@H](C)C1CC1)C2 |  | 13.4 |  | 43.3 |  | 12.2 | 3.4 | 127 |  | 49 |
| Cc1cc(-c2ccn3nc(N)c(C(=O)NC4CC4)c3n2)cc2c1C(=O)N([C@@H](C)C1CC1)C2 | 1670 | 8.92 | 3300 | 6.7 | 460 | 1.5 | 3.6 | 212 | 904 | 27 |
| Cc1cc(-c2ccn3nc(N)c(C(=O)N[C@H]4CC[C@H](O)CC4)c3n2)cc2c1C(=O)N([C@@H](C)C1CC1)C2 | 61 | 4.76 | 188 | 50 | 51 | 10.8 | 1.2 | 106 | 156 | 26 |
